Source: US12508328B2, “Bio-activated reporters to visualize, in real time, specific gene therapy products” (Northwestern University, priority 2019, dated 2025)
Read-outs that look alike come from different tables or passages of the source.

Key:
[1] = Terbium(III) luminescence: determination of q; type: physicochemical; conditions: 10a′-d′, Horrock's equation; MOPS/CO3^2− buffer pH 7.4
Method: The q number in the absence and presence of CO32− was determined using TbIII analogues (5a′, 5b′, 5c′, and 11′). Given the similarities in chemistry amongst the lanthanides, TbIII luminescence is a convenient and established method for determining the coordination environment in corresponding GdIII chelates. The narrow […] emission at 543 nm and the relatively long lived 0.4 ms excited state lifetime for Tb(H2O)x facilitates accurate assessment of the inner-coordination sphere, differentiating between coordination of OH, OD, NH, and ND oscillators. 38 Luminescent decay curves were fit to the empirically derived Horrock's equation (Eq. 2). It was expected that the ortho position would have the lowest q in the presence of CO32−, creating a “dark” state with the lowest relaxivity.
The number of water molecules directly coordinated to the lanthanide center (q), was determined for each of the TbIII analogues 5a′-c′ (see Table 1), 10a′-d′ (Table 2), and 11′ in MilliQ water and MOPS/carbonate buffer (10 mm MOPS, 24 mm NaHCO3, pH 7.4).
The monoexponential fluorescence decay of an ≈1 mm solution of each complex was determined using a Hitachi F4500 fluorometer (Schaumburg, IL). An excitation wavelength of 308 nm and an emission wavelength of […] were used, and 25 scans were acquired and averaged for each solution. The averaged data was fit with a monoexponential decay function, and the time constant (t) for each solution was determined in triplicate. The fluorescence decay curves of the complexes were measured in both H2O and D2O, and in both buffer and deuterated buffer, obtained by lyophilizing and re-suspending the buffer in D2O three times (FIG. 17A-E). The q values were calculated using the empirically derived Horrock's equation for Tb(III) (Eq. 2): […]

[2] = Relaxivity (1.4 T) in MOPS and MOPS/CO3^2−; type: physicochemical
Method: While measurements of q indicate how well an agent can restrict water access to the GdIII center, the most important property for a bio-activated contrast agent is the change in relaxivity upon enzymatic cleavage (r1). To evaluate the signal change in the presence of CO32−, relaxivities of the intermolecular activated agents were measured in two different buffer conditions, the non-coordinating buffer MOPS and MOPS/CO32−.
T1 relaxation times were obtained for 5a-c (FIG. 13), and complexes 10a-d (FIG. 14), and 11 at 37° C. at 60 MHz (1.4 T) on a Bruker mq60 minispec spectrometer (Billerica, MA). Three 1 mM solutions of each complex were prepared in four different buffer conditions 1) 10 mm 3-(N-morpholino)propanesulfonic acid (MOPS), 100 mm NaCl, pH 7.4, 2) 10 mm MOPS, 24 mm NaHCO3, 100 mm NaCl, pH 7.4, 3) Dulbecco's Phosphate Buffer (DPBS) pH 7.3 Life Technologies, and 4) b-galactosidase enzyme assay buffer, 200 mm sodium phosphate, 100 mm bmercaptoethanol, 2 mm MgCl2, pH 7.3 (FIG. 15). Three sets of five serial dilutions (about 1 mm, 0.5 mm, 0.25 mm, 0.125 mm and 0.0625 mm) were prepared for each complex. T1 relaxation rates were measured using an inversion recovery pule sequence (t1_ir_mb) with a 10 ms first pulse separation, recycle delay and final pulse separation ≥5 T1. T1 relaxation rates were plotted as a function of GdIII concentrations as determined by ICP-MS, r1/r2 was obtained from linear fit of concentration vs. T1 as described in Equation (1).

[3] = target: T1, β-gal (Escherichia coli, UniProt P00722)
Method: MR images were acquired on a Bruker Pharmscan 7 T imaging spectrometer fitted with shielded gradient coils at 25° C. Image analysis was carried out using Paravision 5.0 p13 software (Bruker, Billerica, MA, USA) with monoexponential curve-fitting of image intensities of selected regions of interest (ROIs) for each axial slice. […] Exact Gd(III) concentration was verified by ICP-MS. Either 10 μL of enzyme stock solution (50% enzyme assay buffer, 50% glycerol, at 521 U/mL β-gal) or 10 μL of a 50% enzyme assay buffer/50% glycerol solution (used as a control) were added to a 190 μL aliquot of each complex. After this addition, the final concentration of each complex was 475 μM, with 26.1 U/mL of β-gal. The solutions were incubated at 37° C. for 24 hours, then aliquoted to 5, ¾″ flame-sealed Pasteur pipets. The bottom sections of the flame-sealed pipets were then scored with a glass scribe, broken into small capillaries, and imaged using a RF RES 300 1H 089/023 quadrature transmit receive 23 mm volume coil (Bruker BioSpin, Billerica, MA, USA). T1 relaxation times were measured using a rapid-acquisition rapid-echo RARE-VTR T1-map pulse sequence with the following imaging parameters: TE (11.0 ms), TR (500.0 ms), field of view (FOV)=25×25 mm2, matrix size (MTX)=256×256, number of axial slices=5, slice thickness (SI)=1.0 mm, and averages (NEX)=3, and total scan time was 2:36:57. T2 values were measured using a multislice multiecho (MSME) T2-map pulse sequence, with static TR (5000 ms) and 32 fitted echoes in 11 ms intervals (11, 22, . . . , 352 ms). Imaging parameters were as follows: FOV=25×25 mm2, MTX=256×256, number of axial slices=4, SI=1.0 mm, NEX=3, and a total scan time=48 min. T1 images and times can be found in FIG. 14 and T2 maps and times can be found in FIG. 18.

[4] = Complex stability measured by relaxivity (T1); type: physicochemical
[5] = system: β-gal enzyme (lacZ); conditions: for MR signal enhancement in lacZ-expressing mice, 1 h post injection: 9.4 T T1 weighted FLASH
Method: In vivo MR Imaging (9.4 T) Hemizygous transgenic mice (n=2) constitutively expressing the lacZ gene that encodes the β-gal enzyme (strain ROSA26-lacZ) were purchased from The Jackson Laboratory (Bar Harbor, ME). A non-transgenic littermate was used as a control. […] Mice were imaged with MRI at baseline, and 1, 4, and 24 hours post injection.
MRI was performed on a 9.4T Bruker Biospec MRI system with a 30 cm bore, a 12 cm gradient insert, and an Autopac automated sample positioning system (Bruker Biospin Inc, Billerica, MA). Animals were anesthetized in an induction chamber with 3% isoflurane and transferred to a dedicated imaging bed with isoflurane delivered via nosecone at 1-2%. Respiratory signals were monitored using an MR-compatible physiologic monitoring system (SA Instruments, Stonybrook, NY) and a warm water circulating system was used to maintain body temperature. Animals were placed in the prone position and a quadrature radiofrequency coil with inner diameter 40 mm was mounted on the bed. Mice were imaged using a FLASH gradient echo sequence using the following parameters: TR/TE/α=100 ms/2.2 ms/45°, MTX=192×192, FOV 4×4 cm, 9 slices of 1 mm thick, 0.3 mm slice gap, and 1 signal average.

[6] = target: T1, β-gal; conditions: dark to bright
Text: The acetate arm is attached to an amine present in the linker between the macrocycle and the galactopyranose substrate.

[7] = IP 200 microliters of 40 mM, 9.4 T

T1 sequence (P00722 2-1024): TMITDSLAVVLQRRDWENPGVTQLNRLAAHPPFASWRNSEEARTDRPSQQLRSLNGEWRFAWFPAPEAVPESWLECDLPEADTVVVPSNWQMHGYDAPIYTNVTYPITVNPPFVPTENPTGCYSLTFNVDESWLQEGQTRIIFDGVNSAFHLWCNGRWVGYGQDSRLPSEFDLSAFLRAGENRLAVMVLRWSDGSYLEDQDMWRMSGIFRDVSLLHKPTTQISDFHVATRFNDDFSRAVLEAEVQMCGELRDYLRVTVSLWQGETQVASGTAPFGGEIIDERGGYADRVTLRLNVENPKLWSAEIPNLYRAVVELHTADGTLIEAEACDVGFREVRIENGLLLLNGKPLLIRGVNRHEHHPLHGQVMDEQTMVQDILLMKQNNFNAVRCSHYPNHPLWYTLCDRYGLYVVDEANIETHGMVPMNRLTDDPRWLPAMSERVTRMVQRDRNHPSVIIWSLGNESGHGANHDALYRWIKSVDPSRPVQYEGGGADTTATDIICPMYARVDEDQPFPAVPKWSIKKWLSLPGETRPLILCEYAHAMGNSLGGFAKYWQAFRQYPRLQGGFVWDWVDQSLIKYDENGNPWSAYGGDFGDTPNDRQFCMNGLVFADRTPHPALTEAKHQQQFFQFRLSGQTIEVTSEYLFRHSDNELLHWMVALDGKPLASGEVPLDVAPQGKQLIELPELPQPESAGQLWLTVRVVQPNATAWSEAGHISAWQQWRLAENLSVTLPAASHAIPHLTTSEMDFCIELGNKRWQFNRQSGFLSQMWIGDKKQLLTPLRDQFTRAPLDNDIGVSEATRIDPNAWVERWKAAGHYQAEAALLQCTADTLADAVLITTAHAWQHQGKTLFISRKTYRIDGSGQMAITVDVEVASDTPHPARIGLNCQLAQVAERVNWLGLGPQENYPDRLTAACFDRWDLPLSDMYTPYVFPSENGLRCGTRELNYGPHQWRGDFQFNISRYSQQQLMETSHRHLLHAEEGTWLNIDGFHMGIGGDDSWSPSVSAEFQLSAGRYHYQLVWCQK

## CCOC(=O)CCCCCNc1cc(COC(=O)NCCN2CCN(CC(=O)[O-])CCN(CC(=O)[O-])CCN(CC(=O)[O-])CC2)ccc1O[C@@H]1O[C@H](CO)[C@H](O)[C@H](O)[C@H]1O.[Gd+3] [10c, Gadolinium(III)-1-(4-(2-(1-(4,7,10-triscarboxymethyl-(1,4,7,10tetraazacyclododecyl)))ethylcarbamoyloxymethyl)-2-((6-ethoxy-6-oxohexyl)amino)phenyl)-β-D-galactopyranose]
[1]
  q (buffer): 0.1
[2]; 10a-d, MOPS/CO3^2−
  change in signal in the presence of CO3^2−: highest overall change in signal
[2]; intramolecular series 10a-d, 37° C.
  Δr1 relative to the cleaved control product 11: 20%
[3]; 7 T solution phantoms, 24 h incubation
  T1 signal in the presence of β-gal compared with cleaved agent 11: approximately the same
[3]; at both 1.4 and 7 T
  change in relaxivity: positive
[4]; 1 mM in enzyme buffer pH 7.3, over 140 hours
  change in T1 over time (stability): No significant change in T1
[4]; cell culture media, over 140 hours
  change in T1 over time (stability) in cell culture media: No significant change in T1
[5]; [7]
  MR signal enhancement in lacZ-expressing mice, 4 hrs post injection: signal enhancement was present but at a reduced level
  MR signal enhancement in non-transgenic control mice: No signal enhancement was observed
[5]; IP 200 microliters of 40 mM
  MR signal enhancement in lacZ-expressing mice, 1 h post injection: Global signal enhancement was observed
[5]; IP 200 microliters of 40 mM, listed as complex 3
  MR signal enhancement in lacZ-expressing mice, 1 h post injection: Global signal enhancement was observed
[5]; IP 200 microliters of 40 mM, listed as β-galactosidase responsive agent
  MR signal enhancement in lacZ-expressing mice, 1 h post injection: Signal enhancement was noted in the liver and kidneys
[5]; IP 200 microliters of 40 mM, 9.4 T, listed as complex 3
  MR signal enhancement in non-transgenic control mice: No signal enhancement was observed
[5]; IP 200 microliters of 40 mM, 9.4 T, listed as β-galactosidase responsive agent
  MR signal enhancement in non-transgenic control mice: minimal
[5]; LacZ mice, IP injection
  time for MR signal to return to baseline: ≤ 24 h
[5]; bladder very bright at 4 hour time point in one LacZ mouse
  route of clearance: cleared renally
[6]
  change in relaxivity when exposed to β-gal (post enzyme cleavage): 90%
